# Measurements taken from patent publication US20260072027A1, “Peptides And Method” (Queen Mary University of London, priority 2022, published 2026).
# Entries after “also recorded” stand apart in the source; their conditions may differ. Where no end group is shown, it is not given here.
# Columns and labels:
# [1] = test system: CD4+ T-cells (PBMCs); test: In vitro peptide stimulation and T-cell proliferation assay, CD4+; type: cell-based, human; details: Type 1 diabetes (N = 18)
# Description: (§1) In vitro peptide stimulation and T-cell proliferation assay. Peripheral blood mononuclear cells (PBMCs) were freshly isolated from type 1 diabetes and healthy individuals using Ficoll-Hypaque density gradient centrifugation. PBMCs were labelled with the fluorescent dye CellTrace Violet (Invitrogen, Thermo Fisher Scientific) and cultured (2×10^5 cells/well) in round-bottom 96-well plates (Falcon, Becton Dickinson) with RPMI-1640 medium (Gibco, Thermo Fisher Scientific) supplemented with 5% autologous plasma in the presence or not of insulin peptides (20 μg/ml); PPD (10 μg/ml) and anti-CD3 (0.1 μg/ml; clone OKT3) were used as positive control. Two scrambled peptides: […] (SEQ ID NO: 17), […] (SEQ ID NO: 18), and the Exendin 9-39 fragment were used as negative controls. After 7 days, PBMCs were stained with PE-Cy7 anti-CD8 (clone RPA-T8, BD Pharmingen) and FITC anti-CD3 (clone UCHT1, BD Pharmingen). Samples were analysed by using a FACSCanto II (BD Bioscience) to evaluate T-cell proliferation measured as CellTrace Violet dilution. Cytofluorimetric analyses were performed using FlowJo Software (FlowJo, LLC). The results were given as stimulation index (SI), calculated as percentage of stimulated T-cell subset proliferation/percentage of unstimulated T-cell subset proliferation. Assay for detection of peptide specific T cells subsets was done as previously described (detailed in ESM methods, Assay for detection of peptide specific T cells)
# (§2) T-cell stimulation with oxPTM-INSPs. To evaluate the immune cell response against the oxPTM-INSPs, we performed CD4+ and CD8+ T cells proliferation experiments using freshly isolated PBMCs (Study cohort 2, Table 1). Response was calculated as stimulatory index (SI) over unstimulated T-cells.
# [2] = test system: CD8+ T-cells (PBMCs); test: In vitro peptide stimulation and T-cell proliferation assay, CD8+; type: cell-based, human
# Description: as §1, §2
# [3] = test system: CD4+ and CD8+ T-cells and IgG autoantibodies; test: Overlap of CD4+, CD8+ and IgG antibody responses (Venn analysis); type: cell-based, human; details: type 1 diabetes
# Description: FIG. 13. Venn diagrams of CD4^+, CD8^+ and antibody response to oxPTM-INSPs. Panels a, b, and c show the overlap between IgG autoantibody and T-cell (CD4^+ and CD8^+) responses specific to oxPTM-INSP-3 (a), Nt-INSP-4 (b) and oxPTM-INSP-6 (c). Panels d, e, and f display the overlap between T-cell responses to the three insulin peptides and IgG to oxPTM-INS modified by hydroxyl radical (^●OH-INS). […] There is concordance between reactivity to oxPTM-INS and CD4^+ and CD8^+ reactivity for all three tested peptides (7/17, 8/18 and 8/18 for oxPTM-INSP-3, Nt-INSP-4 and oxPTM-INSP-6, respectively). The stimulatory index >1 was used for definition of positive T-cell response.
# Correlation between T-cell stimulation and antibody response. Subjects evaluated for T-cell stimulation were also tested for antibody reactivity to either oxPTM-INSPs or oxidised intact insulin (oxPTM-INS) to assess correlations between humoral and cellular responses (FIG. 11-e-f). In study cohort 2, antibody reactivity to oxPTM-INSP-6 was the highest as observed in the study cohort 1, with 11/18 (61.1%) binding to at least one oxPTM-INSP-6 derivatives (p<0.001 oxPTM-INSP-6 vs. Nt-INSP-6). Detailed analysis of autoantibody response in this cohort is described in the ESM (ESM results Antibody binding to oxPTM-INSPs in Study cohort 2).
# We then analysed the extent of correlation between CD4^+, CD8^+ and IgG antibody responses. […] The CD4^+ T cell response to Nt-INSP-4 frequently overlapped with CD8^+ (13/18 [72.2%]), and to a lesser extent to antibodies (7/18 [38.8%]). […] CD4^+ response to oxPTM-INSP-6 was linked to both CD8^+ and/or antibodies: […] patients had concordant CD4^+ and CD8^+ responses, while 9/18 (50%) patients had concordant CD4^+ and antibody responses. […] CD4^+ T-cell stimulation to Nt-INSP-4, oxPTM-INSP-6 and oxPTM-INSP-3 was associated with antibody reactivity to oxPTM-INS in 8/18 (44.4%), 8/18 (44.4%) and 7/18 (38.9%) type 1 diabetes patients.
# [4] = test system: autoantibodies to oxPTM-INS; test: Competitive displacement ELISA, plate coated with oxidised insulin; type: binding, human
# Protocol: A competitive displacement assay was performed to map the exact epitope, namely the exact amino acid sequence binding specificities and to test the binding to native peptides versus oxidised insulin peptides. The binding to the peptide was done by direct ELISA on the native or modified peptides or by competition ELISA. Initially native synthetic peptide was oxidised by exposing to 0.05 mM CuCl2; 90 mM H2O2; 10 mM NaOCl. Native and modified peptides were fractionated by AKTA to evaluated changes in molecular profile. AKTA fractions were then tested by ELISA for reactivity (FIGS. 2 and 3). We next perform competition ELISA with the native peptides and peptides exposed to 0.05 mM CuCl2; 90 mM H2O2; 10 mM NaOCl. Serum samples were pre-incubated with either native insulin peptides or oxidised insulin peptides. Finally, based on the amino acid sequence of the identified peptides we predicted the amino acids that would be oxidised by ^●OH and HOCl and designed synthetic peptides that contain the oxidised amino acids in the synthesis. Synthetic peptides were produced by standard commercially available methods, specifically by Peptide Protein Research Ltd. Briefly, peptide synthesis was performed by automated solid phase peptide synthesis (SPPS), which was followed by purification. Each individual amino acid was added to the growing chain according to the sequence. Where specified, dihydroxyphenylalanine was added to replace Tyr or cysteate were added to replace Cys. Similarly, these peptides were tested by competition ELISA. The table below describe the different competition ELISA performed:
# Serum samples from children with type 1 diabetes were pre-incubated with the synthetic peptides before they were added to the native insulin or oxidised that were previously coated on the ELISA plate. If the antibodies in the serum sample bind to the peptide they will no longer bind to the insulin or oxidised insulin on the plate-competition ELISA. 1:200 dilutions of serum samples from T1D serum samples were pre-incubated for 2 hr at room temperature with the various peptides as shown in the table above. After incubation, serum/peptide mix was added to the ELISA plate previously coated overnight with either native insulin or oxidised insulin for an additional 2 hr incubation. Plates were then washed in a plate washer three times with PBS 0.05% tween. After washing, 100 ul of anti-human IgG diluted 1:1000 in 1% milk-PBS 0.05% tween were added for additional 1 hour and 30 min incubation. After washing, ELISA was developed by adding 100 ul of TMB (10 mg/ml in DMSO) in 10 ml of 0.1 M sodium acetate plus 2 ul of H2O2. Reaction was stopped by adding 0.5 M H2SO4 (usually 20 min for insulin ELISA).
# To assess the binding specificity of serum samples to identified peptides, a competitive ELISA was performed. The ELISA was carried out following the method described above, except that the serum samples were pre-incubated for 2 h with and without 10 μg/ml peptides as competitors, before adding the serum samples to the insulin coated ELISA plate.
# [5] = biological target: Serum IgG autoantibodies of subjects with type 1 diabetes (human); test: competitive ELISA, T1D serum pre-incubated with peptide, plate coated with oxidised insulin (Example 3)
# [6] = biological target: Serum IgG autoantibodies of subjects with type 1 diabetes (human); test: competitive ELISA, T1D serum pre-incubated with peptide, plate coated with oxidised insulin (FIG. 2A)
reduced binding to oxidised whole insulin ([4]; type 1 diabetes sera pre-incubated with peptide),% reduction of serum binding to oxidised whole insulin [5] [%],% reduction of serum binding to oxidised whole insulin [6] [%],Molecule,"CD4+ T-cell response, subjects with SI > 3 (%) [1] [%]","CD8+ T-cell response, subjects with SI > 1 (%) ([2]; Controls (N = 11))","CD8+ T-cell response, subjects with SI > 1 (%) ([2]; Type 1 diabetes (N = 18))",concordance between reactivity to oxPTM-INS and CD4+ and CD8+ reactivity (patients/patients) ([3]; Study cohort 2),patients with CD4+ T-cell stimulation associated with antibody reactivity to oxPTM-INS ([3]; Study cohort 2) [%],"patients with CD4+, CD8+ T-cells to the peptide and autoantibodies to oxPTM-INS simultaneously ([3]; Study cohort 2) [%]",patients with concordant CD4+ and antibody responses to the peptide ([3]; Study cohort 2) [%],"patients with concordant CD4+, CD8+ and IgG antibody response to the peptide ([3]; Study cohort 2) [%]","patients with overlapping (concordant) CD4+ and CD8+ responses to the peptide ([3]; Study cohort 2, SI >1) [%]",inhibition of type 1 diabetes serum binding to oxPTM-INS (in words) ([4]; sera pre-incubated with peptide competitor)
35-75%,–,–,"oxPTM-INSP-6: oxidised forms of insulin peptide 6 (B:21-30), in house oxidised or in silico derivatives (ERGFFYTPKT; not fully specified (N-terminus); also: oxidised forms, in house oxidised or in silico derivatives, modified residues not defined)",66.7,27.3,72.2,8/18,44.4,33.3,50,44.4,72.2,strongly inhibited binding to oxPTM-INS; also recorded: able to inhibit the binding
–,40 to 80,35 to 80,"SLYQLENYCN (not fully specified (N-terminus); also: oxidised in house (CuCl2, H2O2, NaOCl), modified residues not defined) [oxPTM-INSP-3, peptide 3 oxidised in house (oxidant not specified at the place)]",–,–,–,–,–,–,–,–,–,–
